What was measured:
[1] = test system: S. typhimurium TA1535 (umu D,C SOS gene, luciferase expression); conditions: for Minimum detectable concentration, Method of Present Invention: Table 1, response two times that without test substance, 37° C., 2 hours, S9Mix where necessary; for minimum detectable concentration, fold lower than conventional colorimetric method: first embodiment (luc) vs conventional method
[2] = test system: S. typhimurium TA1535/pSK1002 (umu D,C SOS gene, β-galactosidase expression); test: Conventional colorimetric method (umu test, β-galactosidase activity), Comparative Example 4; conditions: Table 2; response two times that without test substance; 37° C., 2 hours; S9 Mix where necessary
[3] = test system: S. typhimurium TA1535/pSK1002 (umu D,C SOS gene, β-galactosidase expression); test: Conventional colorimetric method (umu test, β-galactosidase activity), Comparative Example 3; conditions: Table 1; response two times that without test substance; 37° C., 2 hours; S9Mix where necessary
[4] = test system: S. typhimurium TA1535 (umu D,C SOS gene, luminescence genes of pUCD620); test: Luminescence assay with genes for luciferase and the enzyme producing its substrate, Example 6; conditions: Table 2; response two times that without test substance; 30° C., 2 hours; S9 Mix where necessary
[5] = Conventional colorimetric method (umu test, β-galactosidase activity), Comparative Example 3; conditions: s. typhimurium ta1535/psk1002
in vitro = conditions: s. typhimurium ta1535

SMILES	Minimum detectable concentration, Method of Present Invention [1] [µg/mL]	minimum detectable concentration, fold lower than conventional colorimetric method [1]	Minimum detectable concentration, Conventional Method [2] [µg/mL]	Minimum detectable concentration, Conventional Method [3] [µg/mL]	Minimum detectable concentration, Method of Present Invention [4] [µg/mL]	dynamic range (highest value of the ratio), expansion relative to conventional colorimetric method ([1]; first embodiment vs conventional colorimetric method)	maximal fold induction [5]	maximal fold induction (in vitro)
O=[N+]([O-])c1ccc2ccc3cccc4ccc1c2c34 [1-NP, 1-nitropyrene]	0.03	about 10 times	0.3	0.3	0.05	–	–	–
Nc1ccc2cc3ccccc3cc2c1 [2-AA, 2-aminoanthracene]	0.04	–	0.1	0.1	0.02	–	–	–
O=[N+]([O-])c1cc[n+]([O-])c2ccccc12 [4NQO, 4-nitroquinoline 1-oxide]	0.01	–	0.04	0.04	0.008	–	–	–
NC(=O)C(=Cc1ccc([N+](=O)[O-])o1)c1ccco1 [AF-2, 2-(2-furyl)-3-(5-nitro-2-furyl)-acrylamide]	0.0005	–	0.003	0.003	0.0005	about 3 times	~5	~15
c1ccc2c(c1)cc1ccc3cccc4ccc2c1c34 [Bap, benzo[a]pyrene]	0.1	about 10 times	1	1	0.04	–	–	–

From US5702883A, “Methods for detection of mutagens using luminescence gene” (Kabushiki Kaisha Toyota Chuo Kenkyusho, priority 1993, dated 1997)
